Like-named read-outs stand apart in the source and are kept apart here.
What was measured:
[1] = molecular target: T1, THR-α ligand-binding domain (H6-THR-α) (Homo sapiens, UniProt P10827); assay: Co-activated peptide recruitment test of THR-α/RXR/GRIP1 (TR_LBD agonist detection, HTRF); type: biochemical; conditions: for EC50: Detection of TR_LBD agonist, read-out: TR_α_EC50; for Maximum activity ratio (A520/A495) / Measurement of cpd/T3 (maximum ratio): TR_LBD agonist, TR_α; for Measurement of cpd/T3 (maximum ratio): maximum relative to T3
T1 construct: made in house; host or cells: Escherichia coli BL21 (DE3), vector pET28a
T1 sequence (P10827 148-410 isoform P10827-2 limits assumed): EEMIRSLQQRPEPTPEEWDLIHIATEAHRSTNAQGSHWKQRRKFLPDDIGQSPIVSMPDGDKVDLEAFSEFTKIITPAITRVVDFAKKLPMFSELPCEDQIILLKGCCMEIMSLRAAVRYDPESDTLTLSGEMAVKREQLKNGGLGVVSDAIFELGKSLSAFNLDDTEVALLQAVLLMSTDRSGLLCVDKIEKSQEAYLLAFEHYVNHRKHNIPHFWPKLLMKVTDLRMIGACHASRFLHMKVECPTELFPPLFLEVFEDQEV
T1 sequence (P19793 225-462 partner limits assumed): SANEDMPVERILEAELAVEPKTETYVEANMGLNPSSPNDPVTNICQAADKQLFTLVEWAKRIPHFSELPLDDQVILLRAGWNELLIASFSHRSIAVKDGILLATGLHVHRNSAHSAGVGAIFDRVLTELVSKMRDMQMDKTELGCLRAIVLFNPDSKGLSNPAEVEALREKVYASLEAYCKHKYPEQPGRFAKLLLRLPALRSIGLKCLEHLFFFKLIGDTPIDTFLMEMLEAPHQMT
T1 sequence (Q15596 679-703 partner limits assumed): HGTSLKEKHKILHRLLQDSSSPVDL
Protocol: (§1) A ligand binding domain of THR-β (amino acids 148-410) (H6-THR-β) and a ligand binding domain of THR-α (amino acids 202-461) (H6-TRα) were cloned into E. coli expression vector pET28a (Novagen, Milwaukee, Wis.) containing N-terminal six His sequences. The resulting recombinant six-His-tagged protein was produced in E. coli BL21(DE3) cells. The cells were grown in Terrific Broth (self-used self-prepared Bacto tryptone (3.3%, w/v), Difico yeast extract (2.0%, w/v) and NaCl (0.5%, w/v) medium), incubated at 25° C. for 24 hours using a shake flask in 0.2 mM IPTG, harvested or dissolved with 5 volumes of buffer A (0.05 M Tris, 0.3 M NaCl, 1% W/V betaine, 0.01 M imidazole, 0.02 M b-mercaptoethanol, pH 8.0). Lysozyme (1.0 mg/ml, Sigma) and CompleteProtease Inhibitor Cocktail (Roche Diagnostics Gmbh) were added to the slurry and the solution was sonicated for one minute and 5 times at 4° C. The suspension was centrifuged at 127,300 RCF for 2 hours in a Ti45 Beckmann rotor and the supernatant was loaded onto an NI NTAAgarose (Quigen 30210) column. After washing with the buffer A, […] or H6-THR-α was eluted with the buffer A containing 0.25 M imidazole.
(§2) 30 microliters of H6-THR-β (50 nM) or H6-THR-α in 50 mM Hepes, pH 7.0, 1 mM DTT, 0.05% NP40 and 0.2 mg/ml BSA (binding buffer) were mixed with an equal volume of EE-RxRα (50 nM) in the binding buffer. […] Aliquot ([…]) was transferred to a 384-well black microtiter plate. HTRF signal was read on a Victor5 reader (PerkinElmer Life and Analytical Sciences). EC50 was calculated.
(§3) Gene clones expressing a ligand-binding domain (amino acids 148-410) of THR-β (H6-THR-β) and a ligand-binding domain (amino acids 202-461) of THR-α (H6-THR-α) were inserted into an Escherichia coli expression vector pET28a, and the expression vector contained one N-terminal 6-His sequence. The expression vector was introduced into an Escherichia coli BL21 (DE3) strain to produce a recombinant protein with a His tag. […] After finishing culturing, a bacterium in culture was collected, and the collected bacterium was resuspended with a lysis solution (0.05 M Tris, 0.3 M NaCl, 1% W/V betaine, 0.01 M imidazole, 0.02 M β-mercaptoethanol, and pH 8.0) with a volume 5 times that of the bacterium, and lysozyme and protease inhibitors were added at the same time, the treated bacteria was subjected to ultrasonic lysis (5 times per minute) in ice bath (4° C.). A lysed suspension was centrifuged at 127300 RCF for 2 hours, a supernatant was loaded on a NI_NTA agarose (Quigen 30210) column, and after washing with a buffer A, an H6-TRβ or H6-TRα protein was eluted with the buffer A containing 0.25 M imidazole.
(§4) A human retinol X receptor (amino acid 225-462) (RxRα) was subjected to engineering modification, so that an N-terminal of the human retinol X receptor had His6 and EE(EFMPME) tags, and then the human retinol X receptor was cloned into a pACYC vector, and produced a His6 EEtagged protein in Escherichia coli. IPTG with a final concentration of 0.1 mM was added into the culture medium for induction, and cultured in a shaking flask at 18° C. for 18 hours. After finishing culturing, a bacterium in culture was collected, and the collected bacterium was re-suspended with a lysis solution (0.05 M Tris, 0.3 M NaCl, 1% W/V betaine, 0.01 M imidazole, 0.02 β-mercaptoethanol, and pH 8.0) with a volume 5 times that of the bacterium, lysozyme and protease inhibitors were added at the same time, and stirred at 4° C. for 30 minutes. Then, a suspension was subjected to an ultrasonic treatment at 4° C. for 30 seconds for 5 times. The suspension was collected, and centrifuged at 12000 RCF for 20 minutes. A supernatant was collected, and the supernatant was filtered with a membrane with a pore size of 0.45 μm, and then added with 0.5% NP-40.

[2] = molecular target: T2, THR-β ligand-binding domain (H6-THR-β) (Homo sapiens, UniProt P10828); assay: Co-activated peptide recruitment test of THR-β/RXR/GRIP1 (TR_LBD agonist detection, HTRF); type: biochemical; conditions: for EC50: Detection of TR_LBD agonist, read-out: TR_beta_EC50; for Measurement of cpd/T3 (maximum ratio) / Maximum activity ratio (A520/A495) / α/β: TR_LBD agonist; for Measurement of cpd/T3 (maximum ratio) / Maximum activity ratio (A520/A495): TR_β; for Measurement of cpd/T3 (maximum ratio): maximum relative to T3; for α/β: ratio TR_α EC50 / TR_β EC50
T2 construct: made in house; host or cells: Escherichia coli BL21 (DE3), vector pET28a
T2 sequence (P10828 217-461 limits assumed): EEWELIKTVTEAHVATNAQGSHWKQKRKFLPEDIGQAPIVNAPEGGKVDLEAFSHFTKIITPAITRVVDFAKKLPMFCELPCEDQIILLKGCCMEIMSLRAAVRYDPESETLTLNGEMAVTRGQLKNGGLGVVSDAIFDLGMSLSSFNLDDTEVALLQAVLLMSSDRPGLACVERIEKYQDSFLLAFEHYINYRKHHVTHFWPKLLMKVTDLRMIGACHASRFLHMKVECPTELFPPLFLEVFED
T2 sequence (P19793 225-462 partner limits assumed): T1 sequence (P19793 225-462 partner limits assumed)
T2 sequence (Q15596 679-703 partner limits assumed): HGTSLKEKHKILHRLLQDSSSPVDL
Protocol: as §1, §2, §3, §4

[3] = system: TR alpha-UAS-bla HEK 293T Cells; assay: TR cell-based agonist detection, β-lactamase reporter (LiveBLAzer FRET B/G), TR alpha; conditions: for Emax: HEK-293T, 24 h, read-out: Maximum activity ratio; for EC50: Detection of TR_cell-based agonist, HEK 293T-TR alpha, 24 hours, read-out: TR_α_EC50
Protocol: (§5) A method for testing a THR-α/β activation activity of a compound by an in-vitro cell level was as follows.
(§6) Compounds were transferred to a 384-well plate by an ECHO liquid workstation, and each compound was diluted by 3 times with 10 gradient concentrations, which was in triplicate. 1.5×10^4 DMEM-cultured cells (TR beta-UAS-bla HEK 293T Cells) or 1.0×10^4 TR alpha-UAS-bla HEK 293T Cells were placed in the 384-well plate. HEK 293T-TR beta was incubated in an incubator for 16 hours, and HEK 293T-TR alpha was incubated in an incubator for 24 hours. A LiveBLAzer™-FRET B/G (CCF4-AM) substrate was added into the cell plate to detect expression of β-lactamase in cells, and under excitation of 409 nm, a product produced fluorescence with a wavelength of 447 nm. When the β-lactamase was not expressed, under excitation of 409 nm, fluorescence with a wavelength of 520 nm was directly produced through FRET. Combination between the compound and the protein was determined by detecting a ratio of the two kinds of fluorescence (blue/green, 460 nm/530 nm), thus calculating EC50 of the compound. […] Calculation of a factor Z (greater than 0.5) would be used for monitoring a stability of each experiment.

[4] = system: TR beta-UAS-bla HEK 293T Cells; assay: TR cell-based agonist detection, β-lactamase reporter (LiveBLAzer FRET B/G), TR beta; conditions: for Emax: read-out: Maximum activity ratio (A460/A530); for EC50: read-out: TR_β_EC50
Protocol: as §5, §6

[5] = Homo sapiens, TR_cell-based agonist, TR_α
[6] = Homo sapiens, HEK-293T, 16 h, TR_cell-based agonist, TR_β
[7] = Homo sapiens, Detection of TR_cell-based agonist, HEK 293T-TR beta, 16 hours

Compound | EC50 [1] [nM] | EC50 [2] [nM] | Measurement of cpd/T3 (maximum ratio) [2] [%] | Emax [3, 5] [%] | EC50 ([3]; Homo sapiens) [nM] | Emax [4, 6] [%] | EC50 [4, 7] [nM] | Maximum activity ratio (A520/A495) [1] | Measurement of cpd/T3 (maximum ratio) [1] [%] | Maximum activity ratio (A520/A495) [2] | α/β [2] | EC50 [3] [nM] | Maximum activity ratio ([3]; TR_cell-based agonist, TR_α) | EC50 ([4]; Detection of TR_cell-based agonist, HEK 293T-TR beta, 16 hours) [nM] | Maximum activity ratio (A460/A530) ([4]; TR_cell-based agonist, TR_β) | Test cpd/T3 (maximum ratio) ([3]; TR_cell-based agonist, TR_α, maximum relative to T3) [%] | Measurement of cpd/T3 (maximum ratio) ([4]; TR_cell-based agonist, TR_β, maximum relative to T3) [%] | α/β ([4]; TR_cell-based agonist, ratio TR_α EC50 / TR_β EC50) | EC50 ([4]; Homo sapiens, HEK-293T, 16 h) [nM]
Cn1cnc2cc(Oc3c(Cl)cc(-n4nc(C#N)c(=O)[nH]c4=O)cc3Cl)ccc21 [Compound 2, 2-(3,5-dichloro-4-((1-methyl-1H-benzo[d]imidazol-5-yl)oxy)phenyl)-3,5-dioxo-2,3,4,5-tetrahydro-1,2,4-triazine-6-carbonitrile] | > 5000 | 154 | 22.1 | 35 | > 20000 | 14.5 | > 20000 |  |  |  |  |  |  |  |  |  |  |  | 
Cn1cnc2cc(Oc3c(Br)cc(-n4nc(C#N)c(=O)[nH]c4=O)cc3Br)ccc21 [Compound 4, 2-(3,5-dibromo-4-((1-methyl-1H-benzo[d]imidazol-5-yl)oxy)phenyl)-3,5-dioxo-2,3,4,5-tetrahydro-1,2,4-triazine-6-carbonitrile] | 581 | 51.7 | 26.6 | 40 | > 20000 | 16.6 | > 20000 | 1.59 | 29.5 | 1.46 | 11.25 |  |  |  |  |  |  |  | 
N#Cc1nn(-c2cc(Cl)c(Oc3ccc4ncn(CCN5CCCC5)c4c3)c(Cl)c2)c(=O)[nH]c1=O [Compound 5] | 1310 | 45.5 | 49.1 |  |  |  |  | 2.45 | 45.5 | 2.69 | 28.81 | > 20000 | 0.42 | > 20000 | 0.134 |  |  |  | 
N#Cc1nn(-c2cc(Cl)c(Oc3ccc4ncn(C5CCNC5)c4c3)c(Cl)c2)c(=O)[nH]c1=O (stereo not drawn) [Compound 6] |  | > 5000 |  |  |  |  |  |  |  |  |  |  |  |  |  |  |  |  | 
N#Cc1nn(-c2cc(Cl)c(Oc3ccc4ncn(C5CCN(Cc6ccccc6)C5)c4c3)c(Cl)c2)c(=O)[nH]c1=O (stereo not drawn) [Compound 7, 2-(4-((1-(1-benzylpyrrolidin-3-yl)-1H-benzo[d]imidazol-6-yl)oxy)-3,5-dichlorophenyl)-3,5-dioxo-2,3,4,5-tetrahydro-1,2,4-triazine-6-carbonitrile] | > 5000 | 13.4 | 22.6 | 19 | > 20000 | 11.6 | > 20000 |  |  |  |  |  |  |  |  |  |  |  | 
N#Cc1nn(-c2cc(Cl)c(Oc3ccc4ncn(C5CCCC5)c4c3)c(Cl)c2)c(=O)[nH]c1=O [Compound 8, 2-(3,5-dichloro-4-((1-cyclopen-tyl-1H-benzo[d]imidazol-6-yl)oxy)phenyl)-3,5-dioxo-2,3,4,5-tetrahydro-1,2,4-triazine-6-carbonitrile] | 55 | 5.48 | 54.0 | 72 | 2200 | 33.9 | 596 | 2.32 | 43.0 | 2.96 | 10.04 |  |  |  |  | 32.7 | 6.2 | 3.69 | 
Cn1c(CCc2ccccc2)nc2cc(Oc3c(Cl)cc(-n4nc(C#N)c(=O)[nH]c4=O)cc3Cl)ccc21 [Compound 9, 2-(3,5-dichloro-4-((1-methyl-2-phenethyl-1H-benzo[d]imidazol-5-yl)oxy)phenyl)-3,5-dioxo-2,3,4,5-tetrahydro-1,2,4-triazine-6-carbonitrile] | > 5000 | 14.8 | 33.6 | 31 | > 20000 | 20.4 | > 20000 | 1.39 |  | 1.84 | >337.84 |  |  |  |  |  |  |  | 
N[C@@H](Cc1cc(I)c(Oc2ccc(O)c(I)c2)c(I)c1)C(=O)O [Compound T3, 3,5,3′-tri-iodine-L-thyronine, reference compound] |  |  |  |  | 0.055 |  |  |  |  |  |  |  |  |  |  |  |  |  | 0.325
